# Values of other authors, collected in patent publication US20130259998A1, “FOODSTUFF PRESERVING COMPOSITION AND USE THEREOF” (NIACET B.V., priority 2012, published 2013).
# Settings: ingredient as such
row,SMILES,pH as such
1,CC(=O)O.CC(=O)O.NC(=N\CCCCCC/N=C(N)/N=C(\N)Nc1ccc(Cl)cc1)/N=C(\N)Nc1ccc(Cl)cc1 [diacetate],4.5-5.0
2,CC(=O)[O-].[Na+] [sodium acetate],8.9
3,CC(O)C(=O)[O-].[Na+] (stereo not drawn) [sodium lactate],6.3
